Values of other authors, collected in US20080241290A1, “Sinus relief composition and method of producing the same” (priority 2007, published 2008).

Details: pure capsaicinoid, Scoville scale

## COc1cc(CNC(=O)CCCC/C=C/C(C)C)ccc1O [capsaicin]
  pungency (Scoville heat units): 15,000,000-16,000,000 Scoville units
